≈ marks a conversion by molar mass, not a printed value. Read-outs that look alike come from different tables or passages of the source.
Tests used:
Assay type in all cases: cell-based
S. pneumoniae 2493 = assay: MIC against S. pneumoniae 2493; conditions: Table 2, S. pneumoniae 2493, Pen R
Source text: (§1) Without limitation, the present cephem compounds alone, or in combination with one or more β-lactamase inhibitors, may provide improved antibacterial efficacy, particularly in antibiotic-resistant bacterial strains. It is believed that the present compounds may be structurally different from known compounds and, as a result, may be more basic in nature. It is an advantage that the present compounds may extend the spectrum of effective bacterial compounds, particularly against previously-resistant bacteria (e.g. ESKAPE organisms), and/or gram negative bacteria, without significant side effects. In a preferred embodiment, the present cephem compound may comprise reference compound ceftazidime, which may be used alone, or in combination with one or more β-lactamase inhibitors, such as NXL-104. As shown, the foregoing composition was tested for minimum inhibitory concentration (MIC, μg/mL) against bacteria listed in Tables 2-3.

E. coli 4102 = assay: MIC against E. coli 4102; conditions: Table 2, E. coli 4102, CTX-M-14
Source text: as §1

C. freundii 2487 = assay: MIC against C. freundii 2487; conditions: Table 2, C. freundii 2487, Caz R, IMP S
Source text: as §1

S. pneumoniae 2405 = assay: MIC against S. pneumoniae 2405; conditions: Table 2, S. pneumoniae 2405, Pen S
Source text: as §1

K. pneumoniae 2713 = assay: MIC against K. pneumoniae 2713; conditions: Table 3, K. pneumoniae 2713, KPC-3, VIM-1
Protocol: (§2) As shown, the foregoing composition was tested for minimum inhibitory concentration (MIC, μg/mL) against bacteria listed in Tables 2-3.

C. freundii 580 = assay: MIC against C. freundii 580; conditions: Table 2, C. freundii 580, Caz R, IMP S
Source text: as §1

E. cloacae 2704 = assay: MIC against E. cloacae 2704; conditions: Table 2, E. cloacae 2704, P99
Source text: as §1

E. cloacae 2689 = assay: MIC against E. cloacae 2689; conditions: Table 3, E. cloacae 2689, KPC-2
Protocol: as §2

E. cloacae 566 = assay: MIC against E. cloacae 566; conditions: Table 2, E. cloacae 566, Caz R, IMP S
Source text: as §1

E. coli 2666 = assay: MIC against E. coli 2666; conditions: Table 3, E. coli 2666, KPC-2
Protocol: as §2

C. freundii 579 = assay: MIC against C. freundii 579; conditions: Table 2, C. freundii 579, Caz R, IMP S
Source text: as §1

K. baumanii 4091 = assay: MIC against K. baumanii 4091; conditions: Table 2, K. baumanii 4091, OXA-23
Source text: as §1

K. pneumoniae 4107 = assay: MIC against K. pneumoniae 4107; conditions: K. pneumoniae 4107, KPC-2, TEM-1, SHV-11
Protocol: as §2

S. pneumoniae ATCC 6301 = assay: MIC against S. pneumoniae ATCC 6301; conditions: Table 2, S. pneumoniae ATCC 6301, Pen S
Source text: as §1

E. cloacae 2710 = assay: MIC against E. cloacae 2710; conditions: Table 3, E. cloacae 2710, KPC-3, VIM-1
Protocol: as §2

S. pneumoniae 2407 = assay: MIC against S. pneumoniae 2407; conditions: Table 2, S. pneumoniae 2407, Pen S
Source text: as §1

E. coli 2668 = assay: MIC against E. coli 2668; conditions: Table 2, E. coli 2668, OXA-48
Source text: as §1

K. baumanii 4095 = assay: MIC against K. baumanii 4095; conditions: Table 2, K. baumanii 4095, OXA-48
Source text: as §1

K. pneumoniae 4106 = assay: MIC against K. pneumoniae 4106; conditions: K. pneumoniae 4106, KPC-3, TEM-1, SHV-12, SHV-141
Protocol: as §2

K. pneumoniae 4088 = assay: MIC against K. pneumoniae 4088; conditions: Table 3, K. pneumoniae 4088, KPC-3
Protocol: as §2

S. aureus 3147 = assay: MIC against S. aureus 3147; conditions: Table 2, S. aureus 3147, MSSA
Source text: as §1

S. pneumoniae 2403 = assay: MIC against S. pneumoniae 2403; conditions: Table 2, S. pneumoniae 2403, Pen S
Source text: as §1

S. aureus 3136 = assay: MIC against S. aureus 3136; conditions: Table 2, S. aureus 3136, MSSA
Source text: as §1

E. coli 4080 = assay: MIC against E. coli 4080; conditions: Table 2, E. coli 4080, TEM-10
Source text: as §1

[1] = Streptococcus pneumoniae, alone, read-out: MIC
[2] = Escherichia coli, alone, read-out: MIC
[3] = Citrobacter freundii, alone, read-out: MIC
[4] = Klebsiella pneumoniae, alone, read-out: MIC
[5] = Enterobacter cloacae, alone, read-out: MIC
[6] = Table 2, in combination with NXL-104
[7] = Table 3, in combination with NXL-104
[8] = Staphylococcus aureus, alone, read-out: MIC

MIC (S. pneumoniae 2493; [1]): 2 µg/mL | MIC (S. pneumoniae 2493; in combination with NXL-104): 2.00 µg/mL | MIC (E. coli 4102; [2]): 2 µg/mL | MIC (E. coli 4102; in combination with NXL-104): 0.12 µg/mL | MIC (C. freundii 2487; [3]): 8 µg/mL | MIC (C. freundii 2487; in combination with NXL-104): 1.00 µg/mL | MIC (S. pneumoniae 2405; [1]): ≤ 0.06 µg/mL | MIC (S. pneumoniae 2405; in combination with NXL-104): ≤0.06 µg/mL | MIC (K. pneumoniae 2713; [4]): > 32 µg/mL | MIC (K. pneumoniae 2713; in combination with NXL-104): 2 µg/mL | MIC (C. freundii 580; [3]): 4 µg/mL | MIC (C. freundii 580; in combination with NXL-104): 0.25 µg/mL | MIC (E. cloacae 2704; [5]): 32 µg/mL | MIC (E. cloacae 2704; in combination with NXL-104): 1.00 µg/mL | MIC (E. cloacae 2689; [5]): 16 µg/mL (≈ 22.6 µM) | MIC (E. cloacae 2689; in combination with NXL-104): 1 µg/mL | MIC (E. cloacae 566; [5]): 4 µg/mL | MIC (E. cloacae 566; in combination with NXL-104): 0.50 µg/mL | MIC (E. coli 2666; [2]): 16 µg/mL (≈ 22.6 µM) | MIC (E. coli 2666; in combination with NXL-104): 1 µg/mL | MIC (C. freundii 579; [3]): 2 µg/mL | MIC (C. freundii 579; in combination with NXL-104): 0.25 µg/mL | MIC (K. baumanii 4091; alone, read-out: MIC): 16 µg/mL | MIC (K. baumanii 4091; in combination with NXL-104): 4.00 µg/mL | MIC (K. pneumoniae 4107; Klebsiella pneumoniae, 4107, Table 2, alone, read-out: MIC): 32 µg/mL (≈ 45.2 µM) | MIC (K. pneumoniae 4107; Klebsiella pneumoniae, 4107, Table 3, alone, read-out: MIC): 16 µg/mL (≈ 22.6 µM) | MIC (K. pneumoniae 4107; [6]): 2.00 µg/mL | MIC (K. pneumoniae 4107; [7]): 1 µg/mL | MIC (S. pneumoniae ATCC 6301; Streptococcus pneumoniae, ATCC6301, alone, read-out: MIC): ≤ 0.06 µg/mL | MIC (S. pneumoniae ATCC 6301; in combination with NXL-104): ≤0.06 µg/mL | MIC (E. cloacae 2710; [5]): > 32 µg/mL | MIC (E. cloacae 2710; in combination with NXL-104): >32 µg/mL | MIC (S. pneumoniae 2407; [1]): ≤ 0.06 µg/mL | MIC (S. pneumoniae 2407; in combination with NXL-104): ≤0.06 µg/mL | MIC (E. coli 2668; [2]): 0.5 µg/mL | MIC (E. coli 2668; in combination with NXL-104): 0.12 µg/mL | MIC (K. baumanii 4095; alone, read-out: MIC): 0.12 µg/mL | MIC (K. baumanii 4095; in combination with NXL-104): 0.25 µg/mL | MIC (K. pneumoniae 4106; Klebsiella pneumoniae, 4106, Table 2, alone, read-out: MIC): 16 µg/mL (≈ 22.6 µM) | MIC (K. pneumoniae 4106; Klebsiella pneumoniae, 4106, Table 3, alone, read-out: MIC): 32 µg/mL (≈ 45.2 µM) | MIC (K. pneumoniae 4106; [6]): 1.00 µg/mL | MIC (K. pneumoniae 4106; [7]): 2 µg/mL | MIC (K. pneumoniae 4088; [4]): > 32 µg/mL | MIC (K. pneumoniae 4088; in combination with NXL-104): 2 µg/mL | MIC (S. aureus 3147; [8]): 4 µg/mL | MIC (S. aureus 3147; in combination with NXL-104): 4.00 µg/mL | MIC (S. pneumoniae 2403; [1]): ≤ 0.06 µg/mL | MIC (S. pneumoniae 2403; in combination with NXL-104): ≤0.06 µg/mL | MIC (S. aureus 3136; [8]): 4 µg/mL | MIC (S. aureus 3136; in combination with NXL-104): 4.00 µg/mL | MIC (E. coli 4080; [2]): 16 µg/mL | MIC (E. coli 4080; in combination with NXL-104): 0.50 µg/mL
SMILES: CC(C)(O/N=C(\C(=O)N[C@@H]1C(=O)N2C(C(=O)[O-])=C(C[n+]3ccc4c(ccn4Cc4cc(C(=N)N)co4)c3)CS[C@H]12)c1csc(N)n1)C(=O)O [Example 6, (6R,7R)-7-{[(2Z)-2-(2-Amino-1,3-thiazol-4-yl)-2-{[(2-carboxypropan-2-yl)oxy]imino}acetyl]amino}-3-({1-[(4-carbamimidoylfuran-2-yl)methyl]-1H-pyrrolo[3,2-c]pyridin-5-ium-5-yl}methyl)-8-oxo-5-thia-1-azabicyclo[4.2.0]oct-2-ene-2-carboxylate]

— patent USRE48097E1, “Cephem compounds, their production and use” (priority 2015, dated 2020)
